{
  "source": "patent US20220125746A1",
  "about": "“METHOD OF PREVENTING OR TREATING TREATMENT-INDUCED GASTROINTESTINAL INJURY” (priority 2019, published 2022)",
  "key": {"[1]": {"test_system": "LGR5+ stem cells", "assay": "LGR5+ stem cells, niche and DNA damage after CPT-11 in mice", "type": "in vivo, mouse", "description": "LGR5(GFP)/TUNEL IF. Sections were prepared as described above. […] Sections were then washed in PBS, and TUNEL staining was performed with the ApopTag Fluorescein In Situ Apoptosis Detection Kit (Chemicon) according to the manufacturer's instructions (37, 46).\nCD166 IF. Sections were prepared as described above.\np53 BP1 IF: Sections were prepared as described above. […] Sections were then incubated with AlexaFluor-594 goat anti-rabbit secondary antibodies (1:200; A11012; Invitrogen) for 1 hour at room temperature and counterstained with VectaShield plus DAPI.\n(§1) Fresh mucosal scrapings from 10 cm of jejunum were washed in cold PBS, resuspended in 700 ul of RNA lysis buffer, and homogenized in a Dounce homogenizer. RNA was isolated using the Quick-RNA MiniPrep kit (Zymo Research) according to the manufacturer's instructions. Organoids were freed from Matrigel using Cell Recovery Solution (Corning), as described in, before RNA isolation. Complementary DNA was generated from 2 ug of total RNA from mice or ˜100 ng of total RNA from colonic organoids and was pooled from three mice or three wells of organoid culture per treatment group using SuperScript III reverse transcriptase (Invitrogen) and random primers. Gene expression was normalized to Gapdh. Representative results are shown, and similar results were obtained in at least three independent experiments. Details on mouse and human primers are found in Tables 1 and 2."}, "[2]": {"test_system": "mouse colonic organoids", "assay": "Mouse colonic organoids treated with CPT", "type": "cell-based", "conditions": "PUMAi 50 uM", "description": "as §1\nMouse crypt isolation, organoid development, and passage were done as previously described with minor modifications. In brief, the complete culture medium for mouse intestinal organoids was slightly modified as follows: advanced Dulbecco's modified Eagle medium (DMEM)/F12 (12634-010, Invitrogen) was supplemented with 100 units/ml penicillin/0.1 mg/ml streptomycin (Invitrogen), 2 mM GlutaMAX (ThermoFisher), 20% (vol/vol) FBS (S11150, ATLANTA Biologicals), and WRN-conditioned medium (50%, vol/vol). Freshly isolated crypts were cultured with the same medium plus 10 μM Y-27632 (Y0503 Sigma) and 100 μg/ml Primocin (ant-pm-1, InvivoGen). For CPT and PUMAi treatment, intestinal organoids were passaged and re-plated in 25 μL of Matrigel (356231, Corning) in 24-well plates 24 hours before treatment with CPT (0.5 μM, C9911, Sigma-Aldrich) and PUMAi (50 μM) for 24 hours. The CPT-containing medium was replaced with complete medium containing PUMAi (50 μM). Three groups (treatment control, CPT only, and CPT plus PUMAi) were set up. Organoids 100 μm or greater in diameter were enumerated on day 6 after CPT treatment. Similar results were obtained from at least three independent experiments with triplicate wells in each experiment."}},
  "note": "Where a name gives a salt, the structure may show the parent alone.",
  "data": [
    {"molecule": "OCCN1CCN(CC(O)COc2ccc3ccccc3c2)CC1", "note": "(centres unmarked) [PUMAi, 1-[4-(2-hydroxyethyl)-1-piperazinyl]-3-(2-naphthyloxy)-2-propanol dihydrochloride]", "values": [
      {"measurement": "crypt DNA damage by 53BP1 foci", "setting": "[1]; 6 hours after single CPT-11 dose, vs control group", "result": "comparable"},
      {"measurement": "crypt DNA damage by 53BP1 foci", "setting": "[1]; 48 hours after a single dose, more so 120 hours after three doses of CPT-11", "result": "lower"},
      {"measurement": "decrease of CPT-11-induced apoptosis of LGR5+ cells", "setting": "[1]; LGR5-EGFP reporter mice, CPT-11 200 mg/kg, PUMAi 10 mg/kg 2 h before", "result": "> 70", "unit": "%"},
      {"measurement": "suppression of TA marker CD44 mRNA", "setting": "[1]; after CPT-11, intestinal mucosa", "result": "not by PUMAi"},
      {"measurement": "activation of WNT and NOTCH responsive genes (qRT-PCR)", "setting": "[1]; as early as 6 hours after CPT-11", "result": "largely suppressed"},
      {"measurement": "CPT-11-induced expansion of CD166+ cells", "setting": "[1]; by 96 hours", "result": "fully suppressed"},
      {"measurement": "CPT-induced activation of WNT and NOTCH targets (Lgr5, CD44, Olfm4)", "setting": "[2]; 24 h after CPT", "result": "suppressed CPT-induced activation of WNT and NOTCH targets"},
      {"measurement": "CPT-induced growth suppression and caspase-3 activation", "setting": "[2]; CPT 500 nM 24 h", "result": "strongly blocked"}
    ]}
  ]
}
